Data published in patent US20070049564A1 (Wyeth, priority 2005, published 2007).
In brackets after ≈: the same amount, converted by molar mass. Read-outs that look alike come from different tables or passages of the source.

What was measured:
[1] = system: E. faecalis GC 2265; assay: MIC, broth microdilution; conditions: Enterococcus faecalis
[2] = system: E. coli GC 2236; assay: MIC, broth microdilution; conditions: Escherichia coli
[3] = system: S. aureus GC 1131; assay: MIC, broth microdilution; conditions: Staphylococcus aureus
[4] = system: c. albicans GC 3066; assay: MIC, broth microdilution; conditions: for MIC: Candida albicans, GC3066, read-out: MINIMAL INHIBITORY CONCENTRATION MIC; for MINIMAL INHIBITORY CONCENTRATION MIC: pre-incubated in Water
[5] = system: E. faecium GC 2243; assay: MIC, broth microdilution; conditions: Enterococcus faecium
Protocol: (§1) Antimicrobial susceptibility testing. The in vitro activities of the antibiotics are determined by the broth microdilution method as recommended by the National Committee for Clinical Laboratory Standards (NCCLS) (1). Mueller-Hinton II broth (MHBII)(BBL Cockeysville, Md.) is the medium employed in the testing procedures. Microtiter plates containing serial dilutions of each antimicrobial agent are inoculated with each organism to yield the appropriate density (10^5 CFU/ml) in a 100 μl final volume. The plates are incubated for 18-22 hours at 35° C. in ambient air.
Representative compounds were first incubated in mouse serum for an hour prior to the in vitro testing against a panel of selected gram-positive and gram-negative bacteria strains. All compounds were also pre-incubated in water for an hour prior to testing as control.

[6] = system: S. aureus GC 2216; assay: MIC, broth microdilution; conditions: Staphylococcus aureus
[7] = system: S. epidermidis GC 4935; assay: MIC, broth microdilution; conditions: Staphylococcus epidermidis
[8] = system: E. coli GC 2272; assay: MIC, broth microdilution; conditions: Escherichia coli
Protocol: as §1
Representative compounds were first incubated in mouse serum for an hour prior to the in vitro testing against a panel of selected gram-positive and gram-negative bacteria strains. All compounds were also pre-incubated in water for an hour prior to testing as control. Representative compounds of Formula I were incubated in human serum prior to MIC determination.

[9] = system: S. pneumoniae* GC 4465; assay: MIC, broth microdilution; conditions: Streptococcus pneumoniae
[10] = system: P. aeruginosa GC 2214; assay: MIC, broth microdilution; conditions: Pseudomonas aeruginosa
[11] = system: E. coli; assay: Range of MIC for E. coli strains; conditions: Escherichia coli
[12] = system: E. faecalis GC 2242; assay: MIC, broth microdilution; conditions: Enterococcus faecalis
[13] = system: Staph. aureus Smith; assay: In vivo activity (oral, iv; ED50) against Staph. aureus Smith in mice
Protocol: Representative examples of compounds of Formula I were tested for the oral efficacy using S. aureus Smith in mice.

[14] = system: E. coli GC 2231; assay: MIC, broth microdilution; conditions: Escherichia coli
[15] = system: Staph.; assay: Range of MIC for Staph. strains, including MRSA; conditions: Staphylococcus aureus, MRSA
[16] = system: S. pneumoniae+ GC 4465; assay: MIC, broth microdilution; conditions: Streptococcus pneumoniae
[17] = system: E. faecalis GC 4555; assay: MIC, broth microdilution; conditions: Enterococcus faecalis
[18] = system: E. faecalis GC 2267; assay: MIC, broth microdilution; conditions: Enterococcus faecalis
[19] = system: E. coli GC 2232; assay: MIC, broth microdilution; conditions: Escherichia coli
[20] = system: S. aureus GC 4536; assay: MIC, broth microdilution; conditions: Staphylococcus aureus
[21] = GC2265, read-out: MINIMAL INHIBITORY CONCENTRATION MIC, pre-incubated in Mouse Serum
[22] = GC2265, read-out: MINIMAL INHIBITORY CONCENTRATION MIC, pre-incubated in Water
[23] = GC2236, read-out: MINIMAL INHIBITORY CONCENTRATION MIC, pre-incubated in Mouse Serum
[24] = GC2236, read-out: MINIMAL INHIBITORY CONCENTRATION MIC, pre-incubated in Water
[25] = GC1131, read-out: MINIMAL INHIBITORY CONCENTRATION MIC, pre-incubated in Mouse Serum
[26] = GC1131, read-out: MINIMAL INHIBITORY CONCENTRATION MIC, pre-incubated in Water
[27] = GC2243, read-out: MINIMAL INHIBITORY CONCENTRATION MIC, pre-incubated in Mouse Serum
[28] = GC2243, read-out: MINIMAL INHIBITORY CONCENTRATION MIC, pre-incubated in Water
[29] = GC2216, read-out: MINIMAL INHIBITORY CONCENTRATION MIC, pre-incubated in Mouse Serum
[30] = GC2216, read-out: MINIMAL INHIBITORY CONCENTRATION MIC, pre-incubated in Water
[31] = GC4935, read-out: MINIMAL INHIBITORY CONCENTRATION MIC, pre-incubated in Mouse Serum
[32] = GC4935, read-out: MINIMAL INHIBITORY CONCENTRATION MIC, pre-incubated in Water
[33] = GC2272, read-out: MINIMAL INHIBITORY CONCENTRATION MIC, pre-incubated in Mouse Serum
[34] = GC2272, read-out: MINIMAL INHIBITORY CONCENTRATION MIC, pre-incubated in Water
[35] = read-out: MINIMAL INHIBITORY CONCENTRATION MIC, pre-incubated in Mouse Serum
[36] = read-out: MINIMAL INHIBITORY CONCENTRATION MIC, pre-incubated in Water
[37] = GC2214, read-out: MINIMAL INHIBITORY CONCENTRATION MIC, pre-incubated in Mouse Serum
[38] = GC2214, read-out: MINIMAL INHIBITORY CONCENTRATION MIC, pre-incubated in Water
[39] = 20 h, read-out: Range of MIC, E. coli (Mouse Serum)
[40] = read-out: Minimum inhibitory concentration (MIC), E. coli (mouse serum)
[41] = read-out: Minimum inhibitory concentration (MIC), E. coli (water)
[42] = read-out: Range of MIC, E. coli (Water)
[43] = GC2242, read-out: MINIMAL INHIBITORY CONCENTRATION MIC, pre-incubated in Mouse Serum
[44] = GC2242, read-out: MINIMAL INHIBITORY CONCENTRATION MIC, pre-incubated in Water
[45] = Staphylococcus aureus, in Mus musculus, po, read-out: ED50 Staph Smith SOD
[46] = iv, read-out: ED50 Staph Smith SIV
[47] = GC2231, read-out: MINIMAL INHIBITORY CONCENTRATION MIC, pre-incubated in Mouse Serum
[48] = GC2231, read-out: MINIMAL INHIBITORY CONCENTRATION MIC, pre-incubated in Water
[49] = read-out: Minimum inhibitory concentration (MIC), Staph. (mouse serum)
[50] = read-out: Range of MIC, Staph (Mouse Serum)
[51] = GC4555, read-out: MINIMAL INHIBITORY CONCENTRATION MIC, pre-incubated in Mouse Serum
[52] = GC4555, read-out: MINIMAL INHIBITORY CONCENTRATION MIC, pre-incubated in Water
[53] = GC2267, read-out: MINIMAL INHIBITORY CONCENTRATION MIC, pre-incubated in Mouse Serum
[54] = GC2267, read-out: MINIMAL INHIBITORY CONCENTRATION MIC, pre-incubated in Water
[55] = GC2232, read-out: MINIMAL INHIBITORY CONCENTRATION MIC, pre-incubated in Mouse Serum
[56] = GC2232, read-out: MINIMAL INHIBITORY CONCENTRATION MIC, pre-incubated in Water
[57] = GC4536, read-out: MINIMAL INHIBITORY CONCENTRATION MIC, pre-incubated in Mouse Serum
[58] = GC4536, read-out: MINIMAL INHIBITORY CONCENTRATION MIC, pre-incubated in Water

Work on `CCCCN(CC(=O)Nc1cc(N(C)C)c2c(c1O)C(=O)C1=C(O)[C@]3(O)C(=O)C(C(N)=O)=C(O)[C@@H](N(C)C)[C@@H]3C[C@@H]1C2)C(=O)OCOC(=O)c1ccc(-c2ccccc2)cc1` [Example 21, ({[(2-{[(5aR,6aS,7S,10aS)-9-(aminocarbonyl)-4,7-bis(dimethylamino)-1,8,10a,11-tetrahydroxy-10,12-dioxo-5,5a,6,6a,7,10,10a,12-octahydrotetracen-2-yl]amino}-2-oxoethyl)(butyl)amino]carbonyl}oxy)methyl 1,1′-biphenyl-4-carboxylate] yielded an MIC [1, 21] of 1 µg/mL (≈ 1.19 µM), an MIC [1, 22] of 64 µg/mL (≈ 76.2 µM) and an MIC [2, 23] of 1 µg/mL (≈ 1.19 µM). The MIC [2, 24] was over 64 µg/mL, the MIC [3, 25] was 1 µg/mL (≈ 1.19 µM) and the MIC [3, 26] was 64 µg/mL (≈ 76.2 µM). For the same molecule, the MIC [4] was over 64 µg/mL, the “MINIMAL INHIBITORY CONCENTRATION MIC” value [4] was over 64 UG/ML and the MIC [5, 27] was 0.5 µg/mL (≈ 0.595 µM). For the same molecule, the MIC [5, 28] was 8 µg/mL (≈ 9.52 µM), the MIC [6, 29] was 1 µg/mL (≈ 1.19 µM) and the MIC [6, 30] was 64 µg/mL (≈ 76.2 µM). The MIC [7, 31] was 2 µg/mL (≈ 2.38 µM), the MIC [7, 32] was 64 µg/mL (≈ 76.2 µM) and the MIC [8, 33] was 1 µg/mL (≈ 1.19 µM). For the same molecule, the MIC [8, 34] was over 64 µg/mL, the MIC [9, 35] was 0.25 µg/mL (≈ 0.298 µM) and the MIC [9, 36] was 0.5 µg/mL (≈ 0.595 µM). For the same molecule, the MIC [10, 37] was over 64 µg/mL, the MIC [10, 38] was over 64 µg/mL and the MIC [11, 39] was 0.5 to 8 µg/mL (≈ 0.595 to 9.52 µM). It also gave an MIC [11, 40] of 0.5 to 8 µg/mL (≈ 0.595 to 9.52 µM), an MIC [11, 41] of over 64 µg/mL and an MIC [11, 42] of over 64 µg/mL. It also gave an MIC [12, 43] of 2 µg/mL (≈ 2.38 µM), an MIC [12, 44] of 32 µg/mL (≈ 38.1 µM) and an ED50 [13, 45] of over 32 mg/kg. The ED50 [13, 46] was 0.77 mg/kg, the MIC [14, 47] was 1 µg/mL (≈ 1.19 µM) and the MIC [14, 48] was over 64 µg/mL. The MIC [15, 49] was 1 to 4 µg/mL (≈ 1.19 to 4.76 µM), the MIC [15, 50] was 1 to 4 µg/mL (≈ 1.19 to 4.76 µM) and the MIC [16, 35] was 4 µg/mL (≈ 4.76 µM). The MIC [16, 36] was 4 µg/mL (≈ 4.76 µM), the MIC [17, 51] was 1 µg/mL (≈ 1.19 µM) and the MIC [17, 52] was 64 µg/mL (≈ 76.2 µM). The MIC [18, 53] was 2 µg/mL (≈ 2.38 µM), the MIC [18, 54] was 64 µg/mL (≈ 76.2 µM) and the MIC [19, 55] was 1 µg/mL (≈ 1.19 µM). It also gave an MIC [19, 56] of over 64 µg/mL, an MIC [20, 57] of 2 µg/mL (≈ 2.38 µM) and an MIC [20, 58] of 32 µg/mL (≈ 38.1 µM).

In the case of `CCCCN(CC(=O)Nc1cc(N(C)C)c2c(c1O)C(=O)C1=C(O)[C@]3(O)C(=O)C(C(N)=O)=C(O)[C@@H](N(C)C)[C@@H]3C[C@@H]1C2)C(=O)OCOC(=O)c1cc(C)cc(C)c1` [Example 22, ({[(2-{[(5aR,6aS,7S,10aS)-9-(aminocarbonyl)-4,7-bis(dimethylamino)-1,8,10a,11-tetrahydroxy-10,12-dioxo-5,5a,6,6a,7,10,10a,12-octahydrotetracen-2-yl]amino}-2-oxoethyl)(butyl)amino]carbonyl}oxy)methyl 3,5-dimethylbenzoate], the MIC [1, 21] was 2 µg/mL (≈ 2.53 µM), the MIC [1, 22] was 64 µg/mL (≈ 80.8 µM) and the MIC [2, 23] was 2 µg/mL (≈ 2.53 µM). The MIC [2, 24] was over 64 µg/mL, the MIC [3, 25] was 1 µg/mL (≈ 1.26 µM) and the MIC [3, 26] was 4 µg/mL (≈ 5.05 µM). The MIC [4] was over 64 µg/mL, the “MINIMAL INHIBITORY CONCENTRATION MIC” value [4] was over 64 UG/ML and the MIC [5, 27] was 1 µg/mL (≈ 1.26 µM). For the same molecule, the MIC [5, 28] was 8 µg/mL (≈ 10.1 µM), the MIC [6, 29] was 1 µg/mL (≈ 1.26 µM) and the MIC [6, 30] was 4 µg/mL (≈ 5.05 µM). The MIC [7, 31] was 2 µg/mL (≈ 2.53 µM), the MIC [7, 32] was 16 µg/mL (≈ 20.2 µM) and the MIC [8, 33] was 1 µg/mL (≈ 1.26 µM). For the same molecule, the MIC [8, 34] was over 64 µg/mL, the MIC [9, 35] was 0.5 µg/mL (≈ 0.631 µM) and the MIC [9, 36] was 1 µg/mL (≈ 1.26 µM). For the same molecule, the MIC [10, 37] was over 64 µg/mL, the MIC [10, 38] was over 64 µg/mL and the MIC [11, 39] was 1 to 8 µg/mL (≈ 1.26 to 10.1 µM). For the same molecule, the MIC [11, 40] was 1 to 8 µg/mL (≈ 1.26 to 10.1 µM), the MIC [11, 41] was over 64 µg/mL and the MIC [11, 42] was over 64 µg/mL. For the same molecule, the MIC [12, 43] was 2 µg/mL (≈ 2.53 µM), the MIC [12, 44] was 32 µg/mL (≈ 40.4 µM) and the ED50 [13, 45] was 18.8 mg/kg. It also gave an ED50 [13, 46] of 0.43 mg/kg, an MIC [14, 47] of 2 µg/mL (≈ 2.53 µM) and an MIC [14, 48] of over 64 µg/mL. For the same molecule, the MIC [15, 49] was 0.5 to 4 µg/mL (≈ 0.631 to 5.05 µM), the MIC [15, 50] was 0.5 to 4 µg/mL (≈ 0.631 to 5.05 µM) and the MIC [16, 35] was 4 µg/mL (≈ 5.05 µM). The MIC [16, 36] was 16 µg/mL (≈ 20.2 µM), the MIC [17, 51] was 2 µg/mL (≈ 2.53 µM) and the MIC [17, 52] was 64 µg/mL (≈ 80.8 µM). For the same molecule, the MIC [18, 53] was 4 µg/mL (≈ 5.05 µM), the MIC [18, 54] was 64 µg/mL (≈ 80.8 µM) and the MIC [19, 55] was 2 µg/mL (≈ 2.53 µM). The MIC [19, 56] was over 64 µg/mL, the MIC [20, 57] was 1 µg/mL (≈ 1.26 µM) and the MIC [20, 58] was 2 µg/mL (≈ 2.53 µM).
